Like-named read-outs stand apart in the source and are kept apart here.
Legend:
[1] = system: Acute myeloid leukemia U937; assay: In vitro proliferation assay (sulphorodamine B); type: cell-based; details: Homo sapiens, U-937, 72 h, mean ± S.E.M.
Breast cancer MCF-7 = assay: In vitro proliferation assay; type: cell-based; details: Homo sapiens, MCF7, 72 h, mean ± S.E.M.
Description: (§1) Anti-proliferative activity was first assessed on a panel of cell lines derived from solid tumors and hematological cancers and then on a large panel of cell lines derived from mature B-cell lymphomas. […] Lymphoma cells were seeded in 96-wells tissue culture plates in complete medium and were exposed to increasing concentrations of ST7612AA1 for 48 or 72 h; the anti-proliferative activity was assessed using 3-(4,5-dimethylthiazol-2-yl)-2,5-diphenyltetrazolium bromide (MTT). The drug potency was evaluated by means of the “ALLFIT” computer program and defined as IC50 (drug concentration required for 50% inhibition of cell survival).

[2] = system: acetylation of histone H4 in NCI-H460 NSCLC cells; assay: Western blot with densitometry, histone H4 acetylation; type: cell-based, human; details: for Acetyl H4/H4: vehicle 0,0274
Description: For assessing the in vitro effect of ST7612AA1 on acetylation of α-tubulin and histones, NSCLC cells were treated with the test compound at various concentrations (dose-response curve). SAHA 5 μM was used as reference inhibitor. Protein extraction, separation and immunoblotting were performed as previously described. Immunoreactive bands were finally subjected to densitometry analysis by a phosphoimaging system (STORM, Molecular Dynamics), and then the IC50 values were calculated by the “ALLFIT” computer program. The antibodies used are listed in Supplementary Table 2.

Breast cancer MDA-MB231 = assay: In vitro proliferation assay (sulphorodamine B); type: cell-based; details: Homo sapiens, MDA-MB-231, 72 h, mean ± S.E.M.
NSCLC NCI-H1975 = assay: In vitro proliferation assay (sulphorodamine B); type: cell-based; details: Homo sapiens, 72 h, mean ± S.E.M.
[3] = system: Ovarian cancer SKOV-3 xenograft; assay: In vivo xenograft model, oral ST7612AA1; design: species or system nude mice; details: 60 mg/10 mL/kg oral, Qdx5/wx4w
Description: (§2) Experiments on solid tumor and acute leukemia in vivo models were carried out at Sigma-Tau (Rome, Italy) using female athymic nude mice, 5-6 weeks-old (Harlan Laboratories, Udine, IT). Mice were maintained in laminar flow rooms with constant temperature and humidity in according to the NIH guidelines. The following human tumor xenograft models were used for antitumor activity studies: HCT116 derived from colon carcinoma), MV4;11 from acute myeloid leukaemia (AML), SKOV-3 from ovarian carcinoma, and NCI-H1975 from non-small cell lung cancer (NSCLC). Exponentially growing tumor cells were s.c. inoculated (5×10^6/mouse) in the right flank of nude mice. Groups of eight mice/group were employed to assess antitumor activity. MDA-MB436 breast carcinoma (3×10^6 cells/0.1 mL of M199/Matrigel GFR 50:50, vol/vol solution) was inoculated in mammary fat pad (mfp). Drug treatments were started from 3 to 11 days after tumor injection, depending on the tumor growth of the xenografted cancer model. ST7612AA1 was given daily for five days per week (qdx5/w). Tumor growth was followed by measurements of tumor diameters with a Vernier caliper. Tumor volume (TV) was calculated using the formula: TV (mm^3) = [d^2 x D]/2, where d and D are the shortest and the longest diameter, respectively. The efficacy of the drug treatment was assessed as: TV inhibition percentage (TVI%) in treated versus control mice, calculated as: TVI%=100-(mean TV treated/mean TV control x100). When tumors reached a volume of 500-1000 mm^3, mice were sacrificed by cervical dislocation. To examine the possible toxicity of treatment, body weight was recorded throughout the study. BWL% (body weight loss) was calculated as 100 – (mean BWdayx/mean BWday1x100), where day 1 is the first day of treatment and day x is any day after (maximum BWL%). DT as doubling time of control tumors was also evaluated.

[4] = system: Colon cancer HCT-116 xenograft; assay: In vivo xenograft model, oral ST7612AA1; design: species or system nude mice; details: 60 mg/10 mL/kg oral, Qdx5/wx3w
Description: as §2

[5] = system: Acute myeloid leukemia MV4;11 xenograft; assay: In vivo xenograft model, oral ST7612AA1; design: species or system nude mice; details: 60 mg/10 mL/kg oral, Qdx5/wx3w
Description: as §2

[6] = system: Breast cancer MDA-MB436 xenograft; assay: In vivo xenograft model, oral ST7612AA1; design: species or system nude mice; details: 60 mg/10 mL/kg oral, Qdx5/wx4w
Description: as §2

[7] = system: NSCLC NCI-H1975 xenograft; assay: In vivo xenograft model, oral ST7612AA1; design: species or system nude mice; details: 60 mg/10 mL/kg oral, Qdx5/wx2w
Description: as §2

ABC-DLBCL cell lines = assay: In vitro proliferation assay, lymphoma panel (summary); type: cell-based; details: Homo sapiens
Description: as §1

[8] = system: splenic marginal zone lymphoma (SMZL) cell lines; assay: as above; type: cell-based; details: Homo sapiens
Description: as §1

GCB-DLBCL cell lines = assay: as above; type: cell-based; details: Homo sapiens
Description: as §1

[9] = system: mantle cell lymphoma (MCL) cell lines; assay: as above; type: cell-based; details: Homo sapiens
Description: as §1

mature B cell lymphomas = assay: as above; type: cell-based; details: Homo sapiens, different mature B cell lymphomas
Description: as §1

[10] = system: Acute myeloid leukemia MV4;11; assay: In vitro proliferation assay (sulphorodamine B); type: cell-based; details: Homo sapiens, 72 h, mean ± S.E.M.

CC(=O)SCCCCC[C@H](NC(=O)[C@H]1CCC(=O)N1)C(=O)Nc1ccccc1 [ST7612AA1]
IC50 [1]: 49 nM
IC50 (Breast cancer MCF-7): 190 nM
Acetyl H4/H4 ([2]; 0,2 µM, NCI-H460): 0,3352
Acetyl H4/H4 ([2]; 0,04 µM, NCI-H460): 0,3092
Acetyl H4/H4 ([2]; 1 µM, NCI-H460): 0,3757
IC50 ([2]; Homo sapiens, NCI-H460, 3 h exposure, Western blot densitometry, read-out: IC50 for increasing the acetylation of histone H4): 4.8 nM
fold more potent in increasing acetylation of histone H4 than of tubulin ([2]; NCI-H460): 40 fold
IC50 (Breast cancer MDA-MB231): 230 nM
IC50 (NSCLC NCI-H1975): 500 nM
BWL% max ([3]; maximum body weight loss): 1%
Lethal toxicity ([3]; mice dead from toxicity/total): 0/8
BWL% max ([4]; maximum body weight loss): 1%
Lethal toxicity ([4]; mice dead from toxicity/total): 0/8
BWL% max ([5]; maximum body weight loss): 4%
Lethal toxicity ([5]; mice dead from toxicity/total): 0/8
BWL% max ([6]; maximum body weight loss): 4%
Lethal toxicity ([6]; mice dead from toxicity/total): 0/8
BWL% max ([7]; maximum body weight loss): 4%
Lethal toxicity ([7]; mice dead from toxicity/total): 0/8
IC50 (ABC-DLBCL cell lines; read-out: IC50 range): 101 to 805 nM
IC50 (ABC-DLBCL cell lines; read-out: median IC50): 257 nM
IC50 ([8]; read-out: IC50 range): 102 to 257 nM
IC50 ([8]; read-out: median IC50): 119 nM
IC50 (GCB-DLBCL cell lines; read-out: IC50 range): 46 to 2660 nM
IC50 (GCB-DLBCL cell lines; read-out: median IC50): 597 nM
IC50 ([9]; read-out: IC50 range): 248 to 553 nM
IC50 ([9]; read-out: median IC50): 433 nM
IC50 (mature B cell lymphomas; read-out: IC50 range): 46 to 2660 nM
IC50 (mature B cell lymphomas; read-out: median IC50): 375 nM
IC50 [10]: 190 ± 20 nM

— article PMC4467398, “Preclinical antitumor activity of ST7612AA1: a new oral thiol-based histone deacetylase (HDAC) inhibitor” (Oncotarget, 2014)
